Test results as given in US20210395262A1, “INHIBITORS OF HUMAN IMMUNODEFICIENCY VIRUS REPLICATION” (ViiV HEALTHCARE UK (NO.5) LIMITED, priority 2018, published 2021).
Like-named read-outs stand apart in the source and are kept apart here.

What was measured:
Format in all cases: cell-based
recombinant NL4-3 virus = test: HIV cell culture assay (antiviral activity, luciferase readout in MT-2 cells)
How it was run: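 MT-2 cells infected for 4-5 days with NL4-3 reference virus carrying Renilla luciferase in place of part of nef, in presence of serial compound dilutions. Luciferase activity read with live-cell substrate. EC50 derived from median effect equation, slope parameter m.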

uninfected MT2 cells = test: Compound cytotoxicity, XTT-based colorimetric assay; details: uninfected MT2 cells, day 4, XTT
How it was run: (§1)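 Run under the antiviral-assay protocol but without virus. Viability was read on day 4 and CC50 values were derived from the readout.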

[1] = as above; details: human; uninfected MT2 cells, day 4, XTT; read-out: CC50
How it was run: as §1

[2] = Human immunodeficiency virus 1, NL43, MT2

| SMILES | EC50 (recombinant NL4-3 virus; MT-2 cells infected for 4-5 days with recombinant NL4-3 virus carrying Renilla luciferase, luciferase activity, read-out: EC50) [nM] | CC50 (uninfected MT2 cells) [nM] | EC50 (recombinant NL4-3 virus; [2]) [nM] | CC50 at 4 days [1] [nM] |
| --- | --- | --- | --- | --- |
| C[C@@H]1CN(c2ccc3c(=O)n(-c4ccc(Cl)c5c(NS(C)(=O)=O)nn(CC(F)F)c45)c([C@H](Cc4cc(F)cc(F)c4)NC(=O)Cn4nc(C(F)F)c5c4C(F)(F)[C@@H]4C[C@H]54)nc3c2)C[C@H](C)O1 [Example 8, N—((S)-1-((3P)-3-(4-chloro-1-(2,2-difluoroethyl)-3-(methylsulfonamido)-1H-indazol-7-yl)-7-((2S,6R)-2,6-dimethylmorpholino)-4-oxo-3,4-dihydroquinazolin-2-yl)-2-(3,5-difluorophenyl)ethyl)-2-((3bS,4aR)-3-(difluoromethyl)-5,5-difluoro-3b,4,4a,5-tetrahydro-1H-cyclopropa[3,4]cyclopenta[1,2-c]pyrazol-1-yl)acetamide] | 0.093 | > 500 |  |  |
| Cn1nc(NS(C)(=O)=O)c2c(Cl)ccc(-n3c([C@H](Cc4cc(F)cc(F)c4)NC(=O)Cn4nc(C(F)F)c5c4C(F)(F)[C@@H]4C[C@H]54)nc4cc(N5CCC6(CCC6)CC5)ccc4c3=O)c21 (atropisomer, axis not shown; (P)) [Example 34, N—((S)-1-((3P)-3-(4-chloro-1-methyl-3-(methylsulfonamido)-1H-indazol-7-yl)-4-oxo-7-(7-azaspiro[3.5]nonan-7-yl)-3,4-dihydroquinazolin-2-yl)-2-(3,5-difluorophenyl)ethyl)-2-((3bS,4aR)-3-(difluoromethyl)-5,5-difluoro-3b,4,4a,5-tetrahydro-1H-cyclopropa[3,4]cyclopenta[1,2-c]pyrazol-1-yl)acetamide] |  |  | 2.81 | > 1000 |
| Cn1nc(NS(C)(=O)=O)c2c(Cl)ccc(-n3c([C@H](Cc4cc(F)cc(F)c4)NC(=O)Cn4nc(C(F)F)c5c4C(F)(F)[C@@H]4C[C@H]54)nc4cc(N5CCCCC5)ccc4c3=O)c21 (atropisomer, axis not shown; (P)) [Example 14, N—((S)-1-((3P)-3-(4-chloro-1-methyl-3-(methylsulfonamido)-1H-indazol-7-yl)-4-oxo-7-(piperidin-1-yl)-3,4-dihydroquinazolin-2-yl)-2-(3,5-difluorophenyl)ethyl)-2-((3bS,4aR)-3-(difluoromethyl)-5,5-difluoro-3b,4,4a,5-tetrahydro-1H-cyclopropa[3,4]cyclopenta[1,2-c]pyrazol-1-yl)acetamide] |  |  | 0.242 | > 1000 |
